Assays:
[1] = system: Porina (Wiseana copularis) larvae; test: Porina bioassay of purified epoxy-janthitrems (Example 6); type: in vivo; settings: for inhibition of feeding at the highest concentration: highest concentration (10 μg/g wet weight); for Mortality of larvae: data not shown; for average diet consumption with increasing concentration: 1, 2.5, 10 μg/g wet weight, 21 days
Protocol: The porina bioassay was carried out as described in Example 4, with the following variations:
15 replicates were used per treatment;
the age of the larvae at the start of the experiment was 10 weeks;
diet was made weekly and replaced after 4 days within each week;
the average weight of diet consumed by the larvae, larval weight gain/loss (data not shown), and larval mortality (data not shown) was determined;
three concentrations of purified epoxy-janthitrems were used (1, 2.5, 10 μg/g wet weight) instead of four; and
an average daily diet consumption (mg/larva) across the 21 days of the trial was determined.

mice (Swiss, female) [2] = test: Mouse tremor bioassay of purified epoxy-janthitrems (Example 7); type: in vivo; settings: ip; for peak tremor score (comparison among epoxy-janthitrems): EJ I 13.5, EJ III 17.2, EJ triol 16.2 mg/kg
Protocol: Epoxy-janthitrem I, Epoxy-janthitrem II, Epoxy-janthitrem III, Epoxy-janthitrem IV, and Epoxy-janthitriol, were administered by intraperitoneal injection as DMSO/water solutions (9:1, 50 μL) into mice (Swiss, female, weight 25+3g). Control mice were injected with the solvent alone (data not shown). Groups of four mice were used for each treatment group. All animal manipulations were approved, and tremor score was calculated, as described above in Example 5.
The dosage rates were informed by the experiment described in Example 5 above, with dose rates as follows: epoxy-janthitrem I (EJ I, 13.5 mg/kg), epoxy-janthitrem II (EJ II, 14.2 mg/kg), epoxy-janthitrem III (EJ III, 17.2 mg/kg), epoxy-janthitrem IV (EJ IV, 16.5 mg/kg), epoxy-janthitriol (EJ triol, 16.2 mg/kg). Tremors were measured regularly until the mice had completely recovered.

[3] = system: Porina (Wiseana cervinata) larvae; test: Porina bioassay of purified epoxy-janthitrem I in semi-synthetic diet (Example 4); type: in vivo
Protocol: Six week-old porina (W. cervinata) larvae reared from eggs (Popay, 2001) were starved overnight and then weighed individually. Larvae were assigned to replicates so that all larvae within a replicate were of a similar weight but randomised amongst treatments. The 20 replicate larvae per treatment were each placed in specimen containers (75 mL) half filled with commercially available fine bark chips.
(§1) An agar-based semi-synthetic diet (Popay, 2001) without antimicrobials was prepared and epoxy-janthitrem I dissolved in 100 μL DMSO was added to 10 g of diet. Four concentrations of epoxy-janthitrem I were prepared (1, 2.5, 5, 10 μg/g wet weight) along with a DMSO control. Discs of diet (7 mm diam.) were taken and placed on top of the bark and the lids were replaced. The experiment was kept in the dark at 15° C. After 24 h, each diet was visually scored for feeding on a scale of 0-10 where 0=no feeding and 10=all diet consumed. The amount of webbing present was also scored on a scale of 0-5. The diet disc was replaced daily with fresh diet for 7 days. Each time diet was replaced, samples of the diet that the porina had fed on were taken as well as a sample of the fresh diet to analyse for epoxy-janthitrem I. Porina were reweighed at the completion of the trial.
The feeding score data were normalised by square root transformation before a repeated measures analysis was carried out using REML with treatment and date as factors. The daily webbing score and weight change of larvae over 7 days were analysed using ANOVA, blocked by replicate, to make pairwise comparisons for each concentration with the solvent control at each date.

mice (Swiss, female) [4] = test: Mouse tremor bioassay (Example 5); type: in vivo
Protocol: Epoxy-janthitrem I, lolitrem B, and the related indole-diterpene, paxilline were administered by intraperitoneal injection as DMSO/water solutions (9:1, 50 μL) into mice (Swiss, female, weight 25+3 g). Control mice were injected with the solvent alone. Dose rates which induce an acceptable maximum tremor response are well established for lolitrem B (2 mg/kg; Gallagher and Hawkes, 1986) and paxilline (6 mg/kg; Miles, et al., 1992).
Groups of four mice were used for each treatment group. All animal manipulations were approved by the
AgResearch Ruakura (Hamilton) Animal Ethics Committee established under the Animal Protection (code of ethical conduct) Regulations Act, 1987 (New Zealand). Tremor score was rated 1-5 on the basis of a visual rating scale using well established protocols (Gallagher and Hawkes, 1985; Gallagher and Hawkes, 1986). Tremors were measured regularly until the mice had completely recovered.

[5] = Analysis of porina diets for epoxy-janthitrem I (stability in diet); type: physicochemical; settings: average
Protocol: as §1

CC(C)=CCOC(C)(C)C1OC2CC[C@]3(C)[C@@]4(C)c5[nH]c6cc7c(cc6c5CC4CC[C@@]3(O)C23O[C@H]3[C@@H]1O)CC1C7=CC(C)(C)OC1(C)C (stereo partly drawn) [epoxy-janthitrem III]
inhibition of feeding at the highest concentration [1]: little inhibition of feeding
peak tremor score (comparison among epoxy-janthitrems) (mice (Swiss, female) [2]): lowest peak tremor scores

CC(C)=CC1O[C@@H]2C(OC3CC[C@]4(C)[C@@]5(C)c6[nH]c7cc8c(cc7c6CC5CC[C@@]4(O)C34O[C@@H]24)CC2C8=CC(C)(C)OC2(C)C)C(C)(C)O1 (stereo partly drawn) [epoxy-janthitrem II]
Weight change of larvae ([1]; 2.5 μg/g): net weigt loss
Mortality of larvae ([1]; 2.5 μg/g): high
Mortality of larvae ([1]; 10 μg/g): high
average diet consumption with increasing concentration [1]: decreased with increasing epoxy-janthitrem concentration
time of peak tremorgenicity (mice (Swiss, female) [2]; EJ I 13.5, EJ II 14.2, EJ III 17.2, EJ IV 16.5, EJ triol 16.2 mg/kg): 9 hours post administration

CC(=O)O[C@@H]1C(C(C)(C)OCC=C(C)C)OC2CC[C@]3(C)[C@@]4(C)c5[nH]c6cc7c(cc6c5CC4CC[C@@]3(O)C23O[C@@H]13)CC1C7=CC(C)(C)OC1(C)C (stereo partly drawn) [epoxy-janthitrem IV]
inhibition of feeding at the highest concentration [1]: little inhibition of feeding

CC(=O)O[C@@H]1C(C(C)(C)O)OC2CC[C@]3(C)[C@@]4(C)c5[nH]c6cc7c(cc6c5CC4CC[C@@]3(O)C23O[C@@H]13)CC1C7=CC(C)(C)OC1(C)C (stereo partly drawn) [epoxy-janthitrem I]
Weight change of larvae ([1]; 2.5 μg/g): net weigt loss
Mortality of larvae ([1]; 2.5 μg/g): high
Mortality of larvae ([1]; 10 μg/g): high
average diet consumption with increasing concentration [1]: decreased with increasing epoxy-janthitrem concentration
effect on consumption at the lowest dose ([1]; lowest dose (1 μg/g wet weight)): substantial inhibitory effect
peak tremor score (comparison among epoxy-janthitrems) (mice (Swiss, female) [2]): significantly greater than that observed for any of the other epoxy-janthitrems
Weight change of larvae ([3]; 1-10 ppm in diet, 7 days): continued to decline with increasing concentration
% gain in weight ([3]; 1 ppm in diet, P<0.05 vs solvent control): 51.1%
feeding score vs solvent control ([3]; 1 ppm in diet, apart from the first day): did not differ significantly from the solvent control
feeding score vs solvent control ([3]; 2.5 ppm in diet): consistent reduction in feeding score for the first 6 days
feeding score vs solvent control ([3]; 5 ppm in diet, entire period of the bioassay): feeding was strongly inhibited
feeding score vs solvent control ([3]; 10 ppm in diet, entire period of the bioassay): feeding was strongly inhibited
Weight gain of larvae relative to the solvent control ([3]; all concentrations except 1 ppm): significantly reduced
in planta concentration that will reliably reduce larval feeding ([3]; extrapolated from dry weight of diet (about ten times wet weight concentrations)): ≥ 25 ppm
Survival of larvae during the experiment ([3]; treatments containing epoxy-janthitrem I (1, 2.5, 5, 10 μg/g wet weight), 7 days): 100%
tremor response (mice (Swiss, female) [4]; 8 mg/kg intraperitoneal): only a low tremor response
concentration of epoxy-janthitrem I in diet relative to expected ([5]; analysed at time zero): 98%
epoxy-janthitrem I remaining in diet, % of the starting concentration ([5]; diets after 24 h): 81%

CC1(C)C=C2c3cc4[nH]c5c(c4cc3CC2C(C)(C)O1)CC1CC[C@@]2(O)C34O[C@H]3[C@H](O)C(C(C)(C)O)OC4CC[C@]2(C)[C@@]51C (stereo partly drawn) [epoxy-janthitriol]
average diet consumption with increasing concentration [1]: decreased with increasing epoxy-janthitrem concentration
peak tremor score (comparison among epoxy-janthitrems) (mice (Swiss, female) [2]): lowest peak tremor scores

CC(C)(O)C1OC2CC[C@@]3(C)[C@@](O)(CCC4Cc5c([nH]c6ccccc56)[C@@]43C)C2=CC1=O (stereo partly drawn) [paxilline, Paxilline]
time of tremor peak (mice (Swiss, female) [4]; ip, paxilline 6 mg/kg): 30 mins post-dosing
time to complete recovery (mice (Swiss, female) [4]; ip, paxilline 6 mg/kg): ≤ 6 hours post-dosing

Reference: patent US20230145729A1, “INDOLE DITERPENE BIOSYNTHESIS” (priority 2020, published 2023)
